{"source": "patent US20030083374A1", "about": "“NAALADase inhibitors useful as pharmaceutical compounds and compositions” (priority 1998, published 2003)", "key": {"[1]": {"tested_on": "Dorsal root ganglia-Schwann cell co-cultures", "test": "in vitro myelination in dorsal root ganglia-Schwann cell co-cultures", "type": "cell-based", "text": "The inventors hypothesized that NAALADase may play a role in signaling myelin formation and inhibition of NAALADase may facilitate myelination. To test this hypothesis, the inventors examined the effects of several NAALADase inhibitors in a well established in vitro model system of myelination. Dorsal root ganglia-Schwann cell co-cultures were established as previously described (Einheber et al., J. Cell. Biol., Vol. 123, p. 1223). Following 7 days in co-culture, myelination was initiated following the addition of serum and ascorbic acid with various doses of NAALADase inhibitors (1 nM to 10 μM) or progesterone (20 nM; positive control). The extent of myelination was examined between days 14-21 using immunocytochemical staining for myelin basic protein (MBP), a known myelin marker."}, "[2]": {"tested_on": "streptozotocin (STZ)-induced peripheral diabetic neuropathy", "test": "in vivo STZ-induced peripheral diabetic neuropathy model, plantar test", "design": "species or system Male Sprague-Dawley rats", "conditions": "50 mg/kg i.p. once per day, following 5 days of dosing", "method": "NAALADase inhibition in an in vivo streptozotocin (STZ)-induced peripheral diabetic neuropathy model was studied. Male Sprague-Dawley rats weighing 200-250 g were rendered diabetic by intravenous injection of 60 mg/kg STZ into the tail vein. Plasma glucose levels were determined 3 weeks after STZ administration. Only STZ-animals with plasma glucose levels>300 mg/dL (17 mM) were used in the study. Thermal pain threshold and withdrawal latency were used to assess the status of the small dorsal root ganglion (DRG) sensory neurons. Pain was monitored using the plantar test (Hargreaves' Method) using a Basile Plantar apparatus built by Ugo Basil, Vaarese, Italy.\nAt two months following the STZ administration, the diabetic animals were hyperalgesic as compared to non-diabetic controls as determined by their difference in withdrawal latency. At this time, the rats were administered either the NAALADase inhibitor Compound 2 (50 mg/kg) or vehicle intraperitoneally once per day for 20 days. Thermal pain responses were measured at days 3, 5, 12 and 19 post-dosing. […] This difference was maintained throughout the observation period."}, "[3]": {"tested_on": "acetic acid (0.6%) induced writhing", "test": "acetic acid model of pain (writhing)", "type": "in vivo, mice", "conditions": "pretreated", "text": "One source of neuronal glutamate is thought to derive from the abundant neuropeptide NAAG which is hydrolyzed by NAALADase to liberate free glutamate. The inventors hypothesized that inhibition of NAALADase could limit pain by preventing this source of glutamate. To test this hypothesis, the inventors examined the possible antinocipetive effects of several NAALADase inhibitors in the formalin-, acetic acid- and chronic constrictive injury (CCI; “Bennett model”) models of pain. […] On day 7, 5% formalin was injected into the dorsum of the rat's hindpaw."}, "[4]": {"tested_on": "STZ-induced diabetic rats", "test": "in vivo assay on neuropathic pain in STZ-diabetic rats (Hargreaves)", "design": "species or system Male Sprague-Dawley rats", "conditions": "10 mg/kg i.p. daily, started 45 days post-STZ", "method": "(§1) Male Sprague-Dawley rats (200-225 g) were rendered diabetic by intravenous administration of streptozotocin (STZ, 70 mg/kg in phosphate buffered saline). Diabetic animals were divided into five groups: one group receiving Compound 2 (10 mg/kg or 1 mg/kg), Compound 1 (10 mg/kg or 1 mg/kg) or vehicle. Another group of animals (non-STZ treated) served as non-diabetic controls. Drug/vehicle treatment was started in diabetic animals 45 days post-STZ administration. STZ-induced diabetic rats were tested for sensitivity to a heat source as soon as blood glucose levels rose to 320 mg/dl or above (30 days post STZ). The rats were then acclimated to the Hargreaves apparatus and thermal nociception was monitored using an infrared heat source directed into the […] surface of the hindpaw, and the time taken for the animal to remove its paw noted to the nearest 0.1 seconds (see Hargreaves et al. 1998 for detailed method). The intensity of the beam source was adjusted such that the mean latency for control animals (non-STZ treated) was approximately 10 seconds. Each animal was tested 8 times and the mean difference score (between mean non-diabetic control latency and mean diabetic latency) are graphically presented in FIGS. 19A and 19B."}, "[5]": {"tested_on": "BB/W diabetic rats", "test": "progression of neuropathic pain in BB/W diabetic rats, thermal nociception", "type": "in vivo, Male BB/W rats", "conditions": "10 mg/kg i.p. daily; starting after 4 weeks, through six months", "text": "(§2) Male BB/W rats (BR1, Mass) spontaneously develop a cell mediated autoimmune destruction of pancreatic B cells, resulting in onset of insulin-dependent (Type I) diabetes (Guberski 1994). […] This renders them valuable for experimental trials of new compounds for future treatments of this major disorder. In the present study, Compound 1 and Compound 2 were examined for their ability to alter the progression of diabetic neuropathy. The rats received daily injection of Compound 1 or Compound 2 (10 mg/kg i.p.) or vehicle, starting at the onset of diabetes (hyperglycemia) and up to 6 months thereafter. Another group of non-diabetic rats also receiving vehicle were tested. All animals were continuously monitored for body weight, urine volume, blood sugar and glycated haemoglobin. In the first month of the study, all animals were tested for thermal nociception in a Hargreaves apparatus, weekly. After the first month this was done biweekly and then monthly. The testing consists of directing an infrared heat source onto the […] surface of the rat hindpaw and noting the time taken for the animal to remove its paw (for detailed method see Hargreaves et al. 1998). Each animal was tested 8 times and the mean withdrawal latency noted."}, "[6]": {"tested_on": "BB/W diabetic rats", "test": "nerve conduction velocity in BB/W diabetic rats", "type": "in vivo, Male BB/W rats", "conditions": "10 mg/kg daily; starting at 8 weeks, through six months", "text": "as §2, with “Each animal was tested 8 times and the mean withdrawal latency noted.” left out\nNerve conduction velocity was also measured every two weeks through the first eight weeks of treatment and every month thereafter through to the six months of treatment (see De Koning et al. 1987 for method details). […]"}, "[7]": {"tested_on": "STZ-diabetic animals", "test": "motor and sensory nerve conduction velocity in STZ-diabetic animals", "type": "in vivo, rats", "conditions": "10 mg/kg daily", "method": "as §1\nMotor and sensory nerve conduction velocity was also measured in STZ-diabetic animals after 4, 8 and 12 weeks of treatment (see De Koning and Gispen 1987 for detailed method). Briefly, stimulating needle electrodes were inserted close to the sciatic and tibial nerves with recording electrodes being placed subcutaneously over the distal foot muscles, in anesthetized rats."}, "[8]": {"tested_on": "PCP-treated rats", "test": "in vivo assay on schizophrenia (PCP model)", "conditions": "50 mg/kg i.p. before PCP (5 mg/kg)", "method": "Rats treated with PCP develop symptoms, such as frantic running and incessant head-turning, that parallel psychotic symptoms in humans. Thus, to examine the effects of NAALADase inhibition on schizophrenia, rats were treated intraperitoneally with Compound 1 (50 mg/kg), Compound 2 (50 mg/kg) or a vehicle (H2O) before they received PCP (5 mg/kg). Head rolling scores were measured for over 2 hours following PCP injection."}}}
{"molecule": "O=C(O)CCC(CP(=O)(O)Cc1c(F)c(F)c(F)c(F)c1F)C(=O)O", "note": "(stereo not shown) [Compound 2, 2-[[(2,3,4,5,6-pentafluorobenzyl)hydroxyphosphinyl]methyl]-pentanedioic acid]", "values": [{"measurement": "immunostaining of MBP", "setting": "[1]; 1 nM, two week treatment", "value": "significant increase"}, {"measurement": "extent of myelination vs. maximal doses of ascorbic acid and progesterone", "setting": "[1]; high dose, 1 μM", "value": "greater extent of myelination"}, {"measurement": "withdrawal latency vs. vehicle animals", "setting": "[2]", "value": "significant increase"}, {"measurement": "acetic acid (0.6%) induced writhing vs. vehicle control", "setting": "[3]", "value": "significantly attenuated"}, {"measurement": "hyperalgesic response in diabetic rats", "setting": "[4]", "value": "completely reversed"}, {"measurement": "withdrawal latencies vs. diabetic vehicle-treated rats", "setting": "[5]", "value": "longer withdrawal latencies"}, {"measurement": "nerve conduction deficits vs. diabetic controls receiving vehicle", "setting": "[6]", "value": "significantly less severe nerve conduction deficits"}, {"measurement": "sensory nerve conduction velocity", "setting": "[7]; after 8 weeks", "value": "significant improvement"}, {"measurement": "motor nerve conduction velocity", "setting": "[7]; after 12 weeks", "value": "significant improvement"}, {"measurement": "locomotor-activating effects of PCP (head rolling scores)", "setting": "[8]", "value": "significantly reduced"}]}
